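Step 1: Grow cells in 96-well plates. Step 2: Expose to compound for 48 hours at 5 concentrations. Step 3: Interpolate endpoints linearly; if unreached, use highest concentration. TGI: total growth inhibition.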
Assays:
Assay in all cases: NCI tumour cell line growth inhibition, 48 h
A549 NSCLC = tested on: A549 NSCLC
HCT-15 colon = tested on: HCT-15 colon
HL-60(TB) leukemia = tested on: HL-60(TB) leukemia
HS 578T breast = tested on: HS 578T breast
M14 melanoma = tested on: M14 melanoma
SF-268 CNS = tested on: SF-268 CNS
SK-MEL-28 melanoma = tested on: SK-MEL-28 melanoma
SN12C renal = tested on: SN12C renal
SNB-75 CNS = tested on: SNB-75 CNS
T-47D breast = tested on: T-47D breast
UACC-62 melanoma = tested on: UACC-62 melanoma
SK-OV-3 ovarian = tested on: SK-OV-3 ovarian

Row | SMILES | TGI (A549 NSCLC) [µM] | TGI (HCT-15 colon) [µM] | TGI (HL-60(TB) leukemia) [µM] | TGI (HS 578T breast) [µM] | TGI (M14 melanoma) [µM] | TGI (SF-268 CNS) [µM] | TGI (SK-MEL-28 melanoma) [µM] | TGI (SN12C renal) [µM] | TGI (SNB-75 CNS) [µM] | TGI (T-47D breast) [µM] | TGI (UACC-62 melanoma) [µM] | TGI (SK-OV-3 ovarian) [µM]
1 | CC[C@@]1(O)C(=O)OCc2c1cc1n(c2=O)Cc2c-1nc1ccccc1c2/C=N\NC(=O)C(N)CC(C)C (stereo partly drawn) | 2.16 | > 36.2 | > 100 | > 100 | 0.648 | 3.68 | > 100 | 1.61 | < 0.0248 | > 100 | 0.0748 | 
2 | O=C(c1ccccc1)c1ccc2c(c1)nc1n2C(c2c(Cl)cccc2Cl)SC1 (stereo not drawn) | > 100 | > 100 | > 100 | > 100 | > 100 | > 100 | > 100 | > 100 | > 100 | > 100 | > 100 | > 100
3 | Nc1nc(Cl)cc(NCC2(O)CC(CO)C2)n1 (stereo not drawn) | > 100 | > 100 | > 100 | > 100 |  | > 100 | > 100 | > 100 | > 100 | > 100 | > 100 | > 100
4 | O=C1c2ccccc2C2CNC1(O)c1ccccc12 (stereo not drawn) | > 100 | > 100 | > 100 | > 100 | > 100 | > 100 | > 100 | > 100 | > 100 | > 100 | > 100 | > 100
5 | OCC1OC(c2scc3c(=S)nc[nH]c23)C(O)C1O (stereo not drawn) | > 100 | > 95.6 | 21.4 | 6.52 | 60.3 | > 100 | > 100 | > 100 | 30.5 | 9.53 | 45.6 | 35.4
6 | C/C=C/[C@@]1(OC(=O)c2ccccc2)C[C@@H]2CCCC[C@@H]21 | 36.7 | 36.9 | 30.9 | 27.2 | 32.3 | 32.4 | 32.9 | 36.7 | 27.3 | 36.5 | 32.9 | 32.6
7 | Nc1nc2c(=O)c3ccccc3sc2s1 | > 100 | > 100 | > 100 | > 100 | > 100 | > 100 | > 100 | > 100 | > 100 | > 100 | 84 | 
8 | O=C(Cn1c(=O)oc2ccc(C(=O)c3ccc(F)cc3)cc21)c1ccc([N+](=O)[O-])cc1 | > 100 | > 100 | 60 | 53.5 | > 100 | > 100 | > 100 | > 100 | > 100 | > 100 | > 100 | > 100
9 | CCCCNC1CCC2(SCCS2)c2[nH]c3ccccc3c21 (stereo not drawn) | > 100 |  | 8.05 | > 82.1 | > 65.1 | > 100 | > 100 | > 100 | > 100 | 6.23 | > 83.8 | > 100
10 | O=C(O)c1ccccc1.[Ag] | > 58.7 | 49.5 | > 42 | > 71.9 | 36 | 50.1 | 32.4 | 51 | 11.3 | 5.28 | 32.3 | 31.2
11 | O=C(Cc1ccccc1)NCCc1ccc(O)c(O)c1 | > 100 | > 100 | 51.9 | > 100 | > 100 | > 100 | > 100 | > 100 | > 100 | > 100 | > 100 | > 100
12 | C=CCNC(=S)Nc1sc2c(c1C(=O)OCC)CC(C)CC2 (stereo not drawn) | 60.8 | > 100 | 14.7 | > 100 | 49.9 | > 100 | > 100 | 82.8 | 64.7 | 66.7 | 46.7 | 69.4
13 | CCOc1cc2c(cc1O)/C(=N\N)C[C@@H]1[C@@H]2CC[C@]2(C)[C@@H](O)CC[C@@H]12 | > 100 | 16.8 | > 61.9 | > 27 | > 41.7 | > 44.9 | 34.2 | > 42.4 | > 25.8 | > 39.5 | 41.9 | > 100
14 | O=C(CSCC(=O)N/N=C/c1cc(I)cc(I)c1O)N/N=C/c1cc(I)cc(I)c1O | > 100 | > 100 | 43.5 | 39 | 43.6 | 22.6 | > 100 | > 100 | 19.5 | > 100 | 31.9 | 35
15 | COc1ccc2oc(=N)c(C(=O)Nc3cccc4ccccc34)cc2c1 | > 100 | > 100 | > 100 | 72.1 | > 100 | > 100 | > 100 | > 100 | 32.9 | > 100 | 17.1 | 92.7
16 | Cc1[nH]c2ncn(/N=C/c3ccccc3O)c(=N)c2c1Cc1ccccc1 | > 100 | > 100 | 66.8 | > 100 | > 100 | > 100 | > 100 | > 100 | > 100 | > 100 | > 100 | > 100
